According to patent publication US7825263B2, “Nitrooxyderivatives of carvedilol and other beta blockers as antihypertensive” (Nicox S.A., priority 2003, dated 2010):

Tested on: PC12 cells
Experiment: Measurements of cGMP in rat PC12 cell line (cGMP accumulation, enzyme immunoassay)
Type: cell-based
Conditions: for EC50: PC-12, 0.75 h
Protocol: Measurements of cGMP in Rat PC12 Cell Line
cGMP contributes to the function and interaction of several vascular cell types and its dysfunction is involved in major cardiovascular diseases such as hypertension, diabetic complications, atherosclerosis, and tissue infarction. Therefore the extent of cGMP formation elicited by the compounds of the inventions was evaluated in the rat pheochromocytoma (PC12) cell line.
Cells were maintained at 37° C. in DMEM medium enriched with 10% horse serum and 5% foetal bovine serum under 5% CO2 atmosphere. At the time of experiments the cells were washed once with Hank's Balanced Salt Solution (HBSS) supplemented with 0.05% ascorbic acid and preincubated in the same buffer for 10 min in a floating water bath. After the preincubation step, cells were exposed for additional 45 min to either control conditions or increasing concentrations of test compounds ranging from 0.1 to 25 μM, in the presence of the phosphodiesterase inhibitor, IBMX (100 μM) and the NO-independent activator of soluble guanylyl cyclase, YC-1 (20 μM). The reaction was terminated by the removal of the incubating buffer and consecutive addition of 100 μl of absolute ethanol. The organic extracts were then evaporated to dryness and the residues dissolved in aqueous buffer for quantitative determination of intracellular cGMP levels using the cGMP enzyme immunoassay kit.
The obtained results reported in Table 1 are expressed as EC50 (μM) and efficacy Emax (% of vehicle). As shown in the table the nitroderivatives of carvedilol induced a consistent increase of intracellular cGMP formation in PC12 cell line. Conversely, this effect was not induced by the parent compound.

[1] = 45 min exposure, 0.1 to 25 μM test compound, in presence of IBMX (100 μM) and YC-1 (20 μM)

| Compound | EC50, cGMP accumulation in PC12 cells [1] | EC50 [1] [µM] | Emax (% of vehicle), cGMP accumulation in PC12 cells [1] | increase of intracellular cGMP formation in PC12 cell line (in words) (summary statement on Table 1) |
| --- | --- | --- | --- | --- |
| COc1ccccc1OCCNCC(O)COc1cccc2[nH]c3ccccc3c12 (centres unmarked) [Carvedilol] | Not effective |  | Not effective | not induced |
| COc1ccccc1OCCNCC(COc1cccc2[nH]c3ccccc3c12)OC(=O)c1ccc(CO[N+](=O)[O-])cc1 (centres unmarked) [Compound of example 1, 4-(Nitrooxymethyl)benzoic acid 1-(9H-carbazol-4-yloxy)-3-[[2-(2-methoxyphenoxy)ethyl]amino]-2-propanoate] |  | 2.3 | 480 % of vehicle |  |
| COc1ccccc1OCCN(CC(O)COc1cccc2[nH]c3ccccc3c12)C(=O)c1ccc(CO[N+](=O)[O-])cc1 (centres unmarked) [Compound of example 3, 1-(9H-carbazol-4-yloxy)-3-[[2-(2-methoxyphenoxy)ethyl][(4-nitrooxymethyl)benzoyl]amino]-2-propanol] |  | 1.8 | 565 % of vehicle |  |

Continued, in another order:

| EC50, cGMP accumulation in PC12 cells [1] | EC50 [1] [µM] | Compound | Emax (% of vehicle), cGMP accumulation in PC12 cells [1] | increase of intracellular cGMP formation in PC12 cell line (in words) (summary statement on Table 1) |
| --- | --- | --- | --- | --- |
|  | 1.7 | COc1ccccc1OCCN(CC(O)COc1cccc2[nH]c3ccccc3c12)C(=O)CCO[N+](=O)[O-] (centres unmarked) [Compound of example 4] | 395 % of vehicle |  |
|  | 0.6 | COc1ccccc1OCCN(CC(O)COc1cccc2[nH]c3ccccc3c12)C(=O)CCCCCO[N+](=O)[O-] (centres unmarked) [Compound of example 5] | 322 % of vehicle |  |
